Test results published in publication PMC4649711, “In1-ghrelin splicing variant is overexpressed in pituitary adenomas and increases their aggressive features” (Scientific Reports, 2015).
“And” between values parts separate entries of the source, which are not always exact repeats. Equal values may be shown once. “Also recorded” adds a separate entry of the source.

How the values were obtained:
[1] = test system: NFPA (tumoral pituitary cells); test: free cytosolic calcium kinetics ([Ca^2+]i), NFPA cells; type: cell-based, human
Procedure: (§1) Pituitary adenoma specimens were dispersed into single cells by enzymatic and mechanical disruption and cultured onto tissue culture plates in serum containing medium, as previously described. Briefly, pituitary samples were resected by endoscopic transsphenoidal surgery and transferred to sterile cold (4°C) culture medium (S-MEM, Gibco, Madrid, Spain) supplemented with 0.1% BSA, 0.01% L-glutamine, 1% antibiotic-antimycotic solution, and 2.5% HEPES. Samples were minced under sterile conditions into 1–2 mm^3 pieces. Some pieces were stored at −80°C for posterior RNA isolation and, when possible, the remaining tissue samples were washed and incubated in 30 mL S-MEM medium supplemented 0.3% trypsin (Beckson, Dickinson and Company, Sparks, MD, USA) in a spinner flask (Bellco Glass, Vineland, NJ, USA) for 2 h of gentle shaking at 37°C and then, incubation was continued for another 5 min in presence of 1 mg of DNAse I (Roche, Mannheim, Germany). Dispersed cells were decanted by centrifugation and then, by repeated aspiration into a smoothtipped glass Pasteur pipette. […]
As previously reported, changes in [Ca^2+]i in single cells were measured using fura-2AM (50,000 cells/coverslip; Molecular Probes, Eugene, OR)[23][30]. […] Cells were examined for changes in [Ca^2+]i after the appropriate treatment (native ghrelin, In1-19 or In1-40) using a 40× objective with Immersion Oil Type NF (Nikon, Tokyo, Japan) while exposed to alternating 340–380 nm light beams, and the intensity of light emission at 505 nm was measured every 5 seconds using MetaFluor Software (Imaging Corp., West Chester, PA, USA). […] Changes in [Ca^2+]i in CHO-K1 cell line expressing recombinant GHSR1a or GHSR1b receptor were measured using Calcium 4 Explorer Kit (Molecular Devices, Sunnyvale, CA, USA). […] Fluorescent signals were then monitored using the FLIPR Tetra (Molecular Devices, Sunnyvale, CA, USA) during which cells were stimulated with compounds. Dose-response curves were analyzed using GraphPad Prism v5.04 (La Jolla, CA, USA).

p-ERK1/2 = test: ERK1/2 phosphorylation by western blot in GH-omas; type: cell-based, human; settings: 100 nM, 8 minutes, p-ERK1/2/total ERK1/2 vs vehicle (100%), n = 4
Procedure: as §1, with “pipette. Cells suspensions were washed once in 4.5 g/L glucose containing DMEM medium (Gibco, Madrid, Spain) supplemented with 0.1% BSA, 0.01% L-glutamine, 1% antibiotic-antimycotic solution, and 2.5% HEPES.” for “pipette.”

p-Akt = test: Akt phosphorylation by western blot in GH-omas; type: cell-based, human; settings: 100 nM, 8 minutes, p-Akt/total Akt vs vehicle (100%), n = 4
Procedure: as §1, with “pipette. Cells suspensions were washed once in 4.5 g/L glucose containing DMEM medium (Gibco, Madrid, Spain) supplemented with 0.1% BSA, 0.01% L-glutamine, 1% antibiotic-antimycotic solution, and 2.5% HEPES.” for “pipette.”

ACTH-omas = test: cell viability of ACTH-oma primary cultures, peptide treatment; type: cell-based, human; settings: 100 nM, 24 h, alamar-blue, n = 2–8
Procedure: as §1
As previously reported, cell viability was estimated using alamar-blue reagent (10,000 cells/well-plate; Biosource International, Camarillo, CA, USA)[30][50][52]. […] Reduction of alamar-blue reagent was quantified exciting at 560 nm and reading at 590 nm using the FlexStation III system (Molecular Devices, Sunnyvale, CA, USA). […]

AtT-20 cell line = test: cell viability of AtT-20 cell line; type: cell-based, mouse; settings: alamar-blue, 3–5 independent experiments, IGF-1 and Paclitaxel as controls
Procedure: The mouse corticotroph pituitary derived cell line AtT-20/D16v-F2 (ATCC® CRL-1795) was cultured and maintained in Dulbecco's Modified Eagle's Medium (DMEM) complemented with 10% FBS, 100 U/ml penicillin/streptomycin, 0.024 M of 2-(4(2-hydroxyethyl)-1-piperazine)-ethane sulfonic acid (HEPES), and maintained at 37°C and 5% CO2, under sterile conditions. CHO-K1 cell line(ATCC® CCL-61) expressing recombinant human GHSR1a (GenBank accession number U60179) or GHSR1b (GenBank accession number U60181) were cultured and maintained in Ham's F12 media (Corning #10-080-CV) supplemented with 10% FBS, 2 mM L-Glutamine and 0.4 mg/mL Geneticin.
As previously reported, cell viability was estimated using alamar-blue reagent (10,000 cells/well-plate; Biosource International, Camarillo, CA, USA)[30][50][52]. Briefly, cells were serum-starved for 12–16 h before the measurements and treated with serum-free medium containing 10% alamar-blue for 3 h. Reduction of alamar-blue reagent was quantified exciting at 560 nm and reading at 590 nm using the FlexStation III system (Molecular Devices, Sunnyvale, CA, USA). Subsequently, media was replaced by serum-containing alamar-blue free medium and incubated for additional 24–72 h, measuring the alamar-blue reduction every 24 h. […]

With `CCCCCCCC(=O)OC[C@H](NC(=O)[C@H](CO)NC(=O)CN)C(=O)N[C@@H](Cc1ccccc1)C(=O)N[C@@H](CC(C)C)C(=O)N[C@@H](CO)C(=O)N1CCC[C@H]1C(=O)N[C@@H](CCC(=O)O)C(=O)N[C@@H](Cc1c[nH]cn1)C(=O)N[C@@H](CCC(N)=O)C(=O)N[C@@H](CCCNC(=N)N)C(=O)N[C@H](C(=O)N[C@@H](CCC(N)=O)C(=O)N[C@@H](CCC(N)=O)C(=O)N[C@@H](CCCNC(=N)N)C(=O)N[C@@H](CCCCN)C(=O)N[C@@H](CCC(=O)O)C(=O)N[C@@H](CO)C(=O)N[C@@H](CCCCN)C(=O)N[C@@H](CCCCN)C(=O)N1CCC[C@H]1C(=O)N1CCC[C@H]1C(=O)N[C@@H](C)C(=O)N[C@@H](CCCCN)C(=O)N[C@@H](CC(C)C)C(=O)N[C@@H](CCC(N)=O)C(=O)N1CCC[C@H]1C(=O)N[C@@H](CCCNC(=N)N)C(=O)O)C(C)C` [AG] the “% cell resp.” value ([1]; NFPA, proportion of responsive cells, fura-2AM single-cell imaging) was 29% and 29.4%, the “# samples” value ([1]; NFPA, responsive/tested samples, fura-2AM, 408 / 367 / 29 cells analyzed for AG / In1-19 / In1-40, peptides 100 nM (abstract)) was 9/15 and the “[Ca^2+]i response (in words)” value ([1]; NFPAs, fura-2AM) was “a subset of NFPA cells is responsive”. The p-ERK1/2 levels (p-ERK1/2) was “clear increase; also recorded: increased both, p-ERK1/2 as well as p-Akt, levels”, the p-Akt levels (p-Akt) was “increased both, p-ERK1/2 as well as p-Akt, levels” and the cell viability (ACTH-omas) was “increased cell viability”. The cell viability (AtT-20 cell line) was “did not alter cell viability”.
